{
  "source": "patent US20050038113A1",
  "about": "“Valproic acid and derivatives for the combinatorial therapeutic treatment of human cancers and for the treatment of tumor metastasis and minimal residual disease” (G2M Cancer Drugs AG, priority 2001, published 2005)",
  "key": {"[1]": {"test_system": "SKOV3 ovarian carcinoma cells", "experiment": "MTT cell viability assay", "assay_type": "cell-based, Human", "conditions": "40 h", "method": "Human SKBR3 breast carcinoma cells, A431 squamous cell carcinoma cells and SKOV3 ovarian carcinoma cells were maintained in Dulbecco's modified Eagle's medium (DMEM, BioWhittaker, Verviers, Belgium) supplemented with 10% heat-inactivated fetal bovine serum (FBS), 2 mM L-glutamine, 100 units/ml penicillin, and 100 μg/ml streptomycin.\nTumor cells were seeded in 96 well plates at a density of 1×10^4 cells/well in normal growth medium. SKBR3, A431 and SKOV3 cells were treated for 40 h with valproic acid at a final concentration of 3 mM, or 10 ng/ml of the recombinant anti-ErbB2 single chain antibody-toxin scFv(FRP5)-ETA (Wels et al., Cancer Res. 52: 6310-6317, 1992), or 10 ng/ml of the recombinant anti-EGF receptor single chain antibody-toxin scFv(14E1)-ETA (Schmidt et al., Brit. J. Cancer 75: 1575-1584, 1997), or a combination of valproic acid with either scFv(FRP5)-ETA or scFv(14E1)-ETA at the same concentrations. […] After solubilization of the formazan product, the absorption at 590 nm was determined in a microplate reader (Dynatech, Denkendorf, Germany) and the relative amount of viable cells in comparison to cells cultured without the addition of valproic acid or antibody-toxins was calculated."}, "[2]": {"test_system": "MT450 breast cancer cells", "experiment": "MT450 rat breast cancer model, subcutaneous tumor growth and lung metastasis", "assay_type": "in vivo", "method": "MT450 cells were grown in DMEM/W10% FCS medium and tested for absence of mycoplasms just prior to injection. Cells were washed twice in PBS and suspended to a density of 5×10^6 cells per ml of PBS. 5×10^5 cells in 0.1 ml of PBS were injected into each rat. […] Rats were left to grow primary tumors for 21 days. […] The solution was sterile filtered. The compound was applied by i.p. injection. […] Two doses per day were applied. Control animals received equal amounts of a sterile isotonic sodium chloride solution.\nThe experiment was terminated when tumor size in one of the rats of the control group had reached the legal limit of 50 mm. Necropsy at that time was performed on all rats of the experiment to assess lung metastasis. […] Metastasis was also found in 7 out of 8 VPA-treated rats. However, size and number of metastases were much smaller compared to NaCl-treated rats. A dose finding experiment had shown that the chosen dosage protocol lead to high initial serum levels (e.g. 3.6 mM at 1 hour after i.p. injection) which rapidly dropped (e.g. 0.25 mM at 4 hours after i.p. injection) below those levels which are maintained during therapy of epilepsy in human."}, "[3]": {"test_system": "control cells (lin-, PINCO empty vector or uninfected)", "experiment": "myeloid differentiation (Mac-1, FACS) of transduced hematopoietic progenitors", "assay_type": "cell-based, Murine", "method": "Murine hematopoietic progenitors (lin-) were transduced with a retroviral vector encoding PML-RAR, and GFP as a marker. […] Myeloid differentiation was scored by analyzing the presence of the differentiation marker Mac-1.\nMurine hematopoietic progenitors were purified from the bone marrow of 129 mice on the basis of the absence of lineage differentiation markers (lin-). Lin- cells were grown for 48 hours in the presence of IL-3 (20 ng/ml), IL-6 (20 ng/ml), SCF (100 ng/ml), and then attached to non-tissue culture treated plates coated with Retronectin (Takara-Shuzo). Cells were then transduced by incubation with the supernatant from Phoenix ecotropic packaging cells (supplemented with fresh serum, and IL-3, IL-6, and SCF as above), transiently transfected with the control retroviral vector PINCO, or PINCO-PML-RAR. After 60 hours, GFP+cells were sorted by FACS, and seeded in methylcellulose plates supplemented as above, plus G-CSF (60 ng/ml) and GM-CSF (20 ng/ml). […] After 8-10 days, cells were analyzed for the presence of the myeloid differentiation marker Mac-1 by FACS. […] Uninfected cells, and cells infected with the control PINCO vector behaved identically (data not shown).\nFor FIG. 11 Lin- cells were transduced with the indicated vectors (control: PINCO, empty vector encoding GFP alone), and GFP+cells were sorted by FACS. […] Differentiation was assessed after 8-10 days by analysis of the myeloid differentiation marker Mac-1."}, "[4]": {"test_system": "PML-RAR expressing leukemic cells", "experiment": "survival of mice suffering from acute promyelocytic leukemia", "assay_type": "in vivo", "method": "Mice that developed leukemia after inoculation with PML-RAR expressing cells were sacrificed. Single-cell suspensions of spleenocytes were prepared, and secondary recipient mice were reinoculated with 10^7 cells.\nThe numbers in parentheses indicate the number of mice in the representative experiment shown."}, "Kasumi-1 cells": {"test_system": "Kasumi-1 cells", "experiment": "viability, cell cycle and myeloid differentiation (morphology, NBT dye reduction)", "assay_type": "cell-based, human", "method": "Cell numbers were evaluated and quantified by direct cell counting (trypan blue dye exclusion method) using a hematocytometer chamber and light microscopy. Morphological examination was performed by Wright-Giemsa stained cytospins; nitroblue tetrazolium (NBT) dye reduction assay, respectively. Each point represents the mean of a set of data determined in triplicate (Example 15).\nCases were classified according to the French-American-British (FAB) classification (Bennett et al., Ann Intern Med 103, 1985). Cytogenetic analysis and RT-PCR tests were performed to rule out the presence of the APL associated fusion genes according to standard methods as described (Mandelli et al., Blood 90, 1997; Mancini et al., Br J Haematol. 91, 1995; Grimwade et al., Blood 90, 1999)."}, "mouse embryos": {"test_system": "mouse embryos", "conditions": "when properly dosed; cited from earlier work"}},
  "data": [
    {"molecule": "CCCC(CCC)C(=O)O", "note": "[VPA, 2-propylpentanoic acid]", "values": [
      {"measurement": "cell viability, combination treatment", "setting": "[1]; 3 mM valproic acid + 10 ng/ml scFv(FRP5)-ETA", "value": "pronounced additive therapeutic effect"},
      {"measurement": "cell viability", "setting": "[1]; single reagent, valproic acid 3 mM, scFv(FRP5)-ETA 10 ng/ml", "value": "inhibit the viability"},
      {"measurement": "size and number of metastases compared to NaCl-treated rats", "setting": "[2]; 1.25 mmol VPA per kg BW i.p., two doses per day", "value": "much smaller"},
      {"measurement": "growth of the primary tumors (tumor volume)", "setting": "[2]; 1.25 mmol VPA per kg BW i.p., two doses per day, vs sodium chloride solution", "value": "delays tumor expansion"},
      {"measurement": "rats with lung metastasis at necropsy", "setting": "[2]; VPA-treated rats, 1.25 mmol/kg i.p. twice daily, all rats of the control group showed metastasis", "value": "7 out of 8"},
      {"measurement": "number of colonies", "setting": "[3]; VPA at higher concentrations (>3 mM), most likely induction of cell death, data not shown", "value": "reduction in the number of colonies"},
      {"measurement": "number of Mac-1+ cells and number of colonies", "setting": "[3]; VPA up to concentrations of 1 mM", "value": "did not cause significant changes"},
      {"measurement": "differentiation of control cells", "setting": "[3]; VPA with cytokines", "value": "did not affect differentiation"},
      {"measurement": "leukemic blasts in peripheral blood, bone marrow, spleen", "setting": "[4]; combination of retinoic acid and VPA, entire duration of the treatment", "value": "no leukemic blasts were observed"},
      {"measurement": "survival of leukemic mice", "setting": "[4]; combination of retinoic acid pellet and VPA 400 mg/kg I.P. every 12 hours", "value": "greatest extension of survival"},
      {"measurement": "survival of leukemic mice", "setting": "[4]; single agent: retinoic acid pellets subcutaneously, VPA 400 mg/kg I.P. every 12 hours", "value": "significantly extended survival"},
      {"measurement": "myeloid differentiation", "setting": "Kasumi-1 cells; VPA as a single agent", "value": "partial myeloid differentiation"},
      {"measurement": "myeloid differentiation", "setting": "Kasumi-1 cells; VPA in combination with RA", "value": "complete and thus synergistic myeloid differentiation"},
      {"measurement": "positive cells in the NBT dye reduction assay", "setting": "Kasumi-1 cells; VPA in combination with RA", "value": "up to 65%"},
      {"measurement": "viability", "setting": "Kasumi-1 cells; VPA in combination with RA", "value": "additive effect"},
      {"measurement": "cell cycle analysis", "setting": "Kasumi-1 cells; combination of VPA plus RA compared to VPA or RA alone", "value": "enhanced cell cycle shift into G1 arrest"},
      {"measurement": "teratogenicity", "setting": "mouse embryos", "value": "teratogenic in the majority of mouse embryos"}
    ]}
  ]
}
